These results are taken from patent US10351575B2, “Bicyclic urea, thiourea, guanidine and cyanoguanidine compounds useful for the treatment of pain” (Array BioPharma Inc., priority 2012, dated 2019).

Each structure is given as a SMILES string.

His-tagged recombinant human TrkA, sequence (P04629 440-796): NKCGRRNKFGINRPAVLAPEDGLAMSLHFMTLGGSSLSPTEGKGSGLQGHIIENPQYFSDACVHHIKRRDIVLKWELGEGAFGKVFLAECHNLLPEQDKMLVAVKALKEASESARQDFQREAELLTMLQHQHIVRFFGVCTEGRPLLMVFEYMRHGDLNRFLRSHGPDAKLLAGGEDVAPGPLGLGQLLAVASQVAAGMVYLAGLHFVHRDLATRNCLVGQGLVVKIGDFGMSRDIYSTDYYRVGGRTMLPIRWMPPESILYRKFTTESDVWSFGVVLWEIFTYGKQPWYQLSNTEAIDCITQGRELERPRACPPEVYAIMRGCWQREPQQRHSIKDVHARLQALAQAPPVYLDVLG

The assay concerns the target His-tagged recombinant human TrkA (Homo sapiens (Human), UniProt P04629). The assay can be described thus: TrkA LanthaScreen Eu Kinase Binding Assay. The settings on record: averaged IC50; TR-FRET binding, 60 min, 22° C.; read-out: TrkA Enzyme IC50. An outline of the steps:
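Three-fold compound dilutions (2% DMSO final) were incubated 60 min at 22° C. with 5 nM His-TrkA cytoplasmic domain, tracer 236 (4 nM), biotinylated anti-His (2 nM) and europium streptavidin (2 nM) in MOPS pH 7.5 buffer. Emission ratio 665/615 gave percent of control; four-parameter fit yielded IC50.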
In general, IC50 refers to the concentration that gives 50% inhibition. As to `Cc1c(-c2cnn(C)c2)nn(-c2ccccc2)c1NC(=O)N[C@H]1CCCc2ccccc21` [Example 2, (S)-1-(1′,4-dimethyl-1-phenyl-1H,1′H-3,4′-bipyrazol-5-yl)-3-(1,2,3,4-tetrahydronaphthalen-1-yl)urea], the half-inhibitory concentration (IC50) is less than 100 nM.

With `Cc1c(-c2cnn(C)c2)nn(-c2ccccc2)c1NC(=O)NC1CCOc2cc(F)ccc21` (stereo not drawn) [Example 12, 1-(1′,4-dimethyl-1-phenyl-1H,1′H-[3,4′-bipyrazol]-5-yl)-3-(7-fluorochroman-4-yl)urea], the IC50 was less than 100 nM.

With `COCc1ccc2c(c1)C(NC(=O)Nc1c(C)c(-c3cnn(C)c3)nn1-c1ccccc1)COC2` (stereo not drawn) [Example 32, 1-(1′,4-dimethyl-1-phenyl-1H,1′H-[3,4′-bipyrazol]-5-yl)-3-(6-(methoxymethyl)isochroman-4-yl)urea], the IC50 is less than 100 nM.
